Results published in patent US20180201594A1, “Compound pac-1 or salt thereof and pharmaceutical composition comprising same” (priority 2015, published 2018).

Assays:
[1] = In vivo pharmacokinetic comparison in rats
Description: Twelve male Wistar rats were randomly divided into ZYS-1 group and PAC-1 group. These rats were fasted for 12 hours before administration, and fed water freely. After ZYS-1 and PAC-1 needle crystal were given at the dose of 60 mg/Kg, 0.5 mL orbital blood was collected at 0, 5, 20, 30, 45, 60, 120, 180, 240, 360, 480, 720 mins, centrifuged at 5000 r/min for 5 min. 200 μL plasma was taken. The plasma was added 3 mL acetone and vortexed for 1 min. After centrifuging at 15000 r/min for 5 min, the supernatant was collected and dried under nitrogen at 37° C., to which 200 μL acetonitrile was added to be reconstituted. After sonication for 10 min, the mixture was vortexed for 1 min, and filtered through 0.45 microporous filter membrane. The filtrate was tested by HPLC, and the plasma concentration at each time point was calculated.

[2] = in vivo; type: in vivo; details: both sexes, ICR, mouse, in vivo, po
Description: (§1) Experimental material: ZYS-1
(§2) Experimental animals and feeding conditions: ICR mice, half male and half female. Body weight 20±2 g, provided by Beijing Weitonglihua Experimental Animal Technology Co., Ltd., SPF grade feeding, certificate: SCXK (Beijing) 2006-0009. Particulate feed for mouse breeding was provided by Beijing Ke'ao Xieli Feed Co., Ltd. Animals were housed in barrier-level (Grade 2) animal lab in Beijing Anzhen Hospital, fluorescent lighting, 12 h light and dark cycle, room temperature 22˜24 ? , humidity 40-47%, air supply 10-12 times/h, Laboratory license number: SYXK (Beijing) 2005-0028. Mice were housed in clear plastic boxes with 5 per cage separated by gender.
(§3) Preparation method of test drug: A white powder of ZYS-1 was placed in a mortar to be finely ground. The drug was accurately weighed before use, which was formulated with 0.5% CMC-Na to reach the desired concentration.
(§4) Animals grouping: After fasting (except for water) for 11 h, according to body weight, animals were randomly divided into groups of 10 with 5 males and 5 females. There were 8 groups in total. […]. One-time intragastric administration was used in the experiment. The negative control group was orally administered an equal volume of 0.5% CMC-Na. The animals started feeding at 3 hours after administration.
(§5) Observed indicators: immediately after administration, the observation of the responses of the animals to drugs (such as: general performance, respiration, activity, with or without convulsions, righting reflex, pain reflex, response to external stimuli and other indicators) was started. After observing and recording the symptom of toxic reaction, the time and duration of toxicity, recovery time, and the time of animal death. After the animal was dead, it was immediately grossly dissected, visually observing each of the main organs (heart, liver, spleen, lung and kidney, stomach) to see if there was congestion, increased volume, hardens, discoloration. The survival animals were observed and recorded day by day whether there was delayed toxicity reaction and delayed death within 7 days, and weigh and feed the animals once every 2 days. After finishing the 7 day's observation, the survival animals were grossly dissected and the situations of the main organs were observed. LD50 was calculated according to the number of animal deaths in each group.

[3] = test system: ICR mice; assay: in vivo; type: in vivo
Description: as §1, §2, §3, §4, §5

[4] = test system: HT-1080 cells; assay: Three-dimensional migration (Transwell assay), HT-1080; type: cell-based, human; details: for Cell number (transmembrane cells): 24 h, n = 9
Description: Starved cells were digested and collected, which were suspended in serum-free medium. The cell intensity was adjusted into 3×10^5 s cells/mL. 100 μL of the cell suspension was added into the upper chamber and 700 μL of medium with 10% serum to the lower chamber per well. According to the experimental design, 50 μL serum-free medium was added per well for the control group, 50 μL of drug-containing serum-free medium was added for the administration groups. They were continued to be cultured in the incubator for another 24 h. The upper chamber was taken, with methanol fixation for 30 min, dyed with Giemsa stain for 30 min, rinsed with clean water twice. The cells on the bottom membrane surface of the upper chamber were carefully wiped off with a wet cotton swab, dried in the air. With the bottom up, they were transferred onto glass slide and sealed with neutral gum. Under the microscope, nine random fields were taken and the transmembrane cells therein were counted. The average values were statistically calculated.

[5] = test system: Murine Lewis lung carcinoma cell line; assay: Spontaneous metastatic cancer in mice (Lewis lung carcinoma); details: for Inhibition rate of metastasis loci / Metastasis rate / Number of lung (metastasis loci) / Tumor weight / tumor inhibition rate: intragastric administration
Description: The tumors growed to 1000 mm^3 and then were randomly divided into groups for adminstration, the groups were treated after three weeks. A total of 4 groups including ZYS-1 high, medium and low (100, 50, 25 mg/kg/d, intragastric administration) and positive control (gefitinib 100 mg/kg/d, intragastric administration) groups were set. The efficacy of ZYS-1 was evaluated in terms of general survival status (food intake, activity, hair etc.), tumor inhibition rate and metastasis inhibition rate.
The curve of tumor growth was plotted. On the next day after completing the treatment cycle, the animal was weighed. After collecting the blood, the animal was sacrificed. The tumor tissue was stripped, weighed, and the tumor inhibition rate was calculated. Store at −80 ? .
Metastasis rate=Number of mice with metastasis/Total number of mice×100%
Inhibition rate of metastasis loci=(average number of metastasis loci in the control group−average number of metastasis loci in the experimental group)/average number of metastasis loci in the control group×100%

[6] = male Wistar rats, 60 mg/Kg, n = 6
[7] = both, ICR, mouse, in vivo, 7 days
[8] = one-time intragastric administration, mice
[9] = Homo sapiens, HT-1080, 24 h, read-out: Inhibition Rate

For `C=CCc1cccc(/C=N/NC(=O)CN2CCN(Cc3ccccc3)CC2)c1O` [ZYS-1, 1-Piperazineacetic acid, 4-(phenylmethyl)-2-[[2-hydroxy-3-(2-propen-1-yl)phenyl]methylene]], the “MRT(0-∞)” value [1, 6] was 420.4914 ± 271.8423 h, the T½ka [1, 6] was 22.9129 ± 6.3243 h and the T½α [1, 6] was 209.5239 ± 129.5666 h. It also gave a V/F [1, 6] of 0.0308 ± 0.0167 L, a ka [1, 6] of 0.0324 ± 0.0098 h⁻¹ and a ke [1, 6] of 0.0048 ± 0.0033 h⁻¹. The lagtime [1, 6] was 4.6861 ± 5.2184 h, the AUC(0-inf) ([1]; male, Wistar, rat, plasma, 60 mg/kg, n = 6) was 724 ± 207 µg·h/mL and the AUC ([1]; male, Wistar, rat, plasma, 60 mg/kg, n = 6, read-out: AUC(0-tn)) was 389 ± 136 µg·h/mL. It also gave a Cmax ([1]; male, Wistar, rat, plasma, 60 mg/kg, n = 6, read-out: Cmax) of 2190 ± 127 ng/mL, an MRT ([1]; male, Wistar, rat, plasma, 60 mg/kg, n = 6, read-out: MRT(0-tn)) of 167 ± 51.5 h and a Tmax ([1]; male, Wistar, rat, plasma, 60 mg/kg, n = 6, read-out: Tmax) of 65 ± 9.44 h. It also gave an LD50 at 7 days ([2]; LD50 95% confidence limit) of 1090 to 2290 mg/kg, an LD50 at 7 days ([2]; LD50 dose) of 1670 mg/kg and a 0% mortality dose [3, 7] of 343 mg/kg. For the same compound, the “non-significant toxic reaction dose” value [3, 7] was 343 mg/kg, the “neurotoxicity, ZYS-1 compared with PAC-1” value ([3]; both, ICR, mouse, in vivo, po, 7 days) was “Comparing the experimental results of acute toxicity of ZYS-1 and PAC-1, it can be seen that ZYS-1 has lower neurotoxicity” and the “time for most survival animals to return to normal after administration” value [3, 8] was no more than 12 h. For the same compound, the “time of death after administration (mainly)” value [3, 8] was no more than 6 h, the “Cell number (transmembrane cells)” value ([4]; 2 μM) was 24.67 ± 8.46 and the “Cell number (transmembrane cells)” value ([4]; 4 μM) was 16.58 ± 4.18. For the same compound, the “Cell number (transmembrane cells)” value ([4]; 8 μM) was 16.08 ± 5.07, the inhibition at 2 µM [4, 9] was 33.5% and the inhibition at 4 µM [4, 9] was 55.3%. The inhibition at 8 µM [4, 9] was 56.6%, the “Inhibition rate of metastasis loci” value ([5]; 25 mg/kg/d) was 54.68% and the Metastasis rate ([5]; 25 mg/kg/d) was 100%. For the same compound, the “Number of lung (metastasis loci)” value ([5]; 25 mg/kg/d) was 6.3 ± 3.3, the Tumor weight ([5]; 25 mg/kg/d) was 1.9579 ± 0.8346 g and the tumor inhibition rate ([5]; 25 mg/kg/d) was 50.63%. The “Inhibition rate of metastasis loci” value ([5]; 50 mg/kg/d) was 61.15%, the Metastasis rate ([5]; 50 mg/kg/d) was 100% and the “Number of lung (metastasis loci)” value ([5]; 50 mg/kg/d) was 5.4 ± 2.6. For the same compound, the Tumor weight ([5]; 50 mg/kg/d) was 1.5844 ± 0.8288 g, the tumor inhibition rate ([5]; 50 mg/kg/d) was 60.05% and the Metastasis rate ([5]; 100 mg/kg/d) was 100%. For the same compound, the “Number of lung (metastasis loci)” value ([5]; 100 mg/kg/d) was 3.8 ± 1.9, the Tumor weight ([5]; 100 mg/kg/d) was 1.0209 ± 0.7332 g and the tumor inhibition rate ([5]; 100 mg/kg/d) was 74.26%. For the same compound, the “Hair Condition” value ([5]; high and medium dose (100, 50 mg/kg/d), tumor-bearing mice) was “shiny coat”.
